Reference: article PMC5078989, “Targeted inhibition of the COP9 signalosome for treatment of cancer” (Nature Communications, 2016)

System: panel of cancer cell lines
Assay: Cell viability (CellTiter-Glo) dose-response across cancer cell line panel;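 also: after 72 h compound incubation with CellTiter-Glo ATP readout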
Assay type: cell-based, human
Details: Homo sapiens
Excerpt: Next, we explored the effect of CSN5 inhibition on the viability of cancer cells. To obtain a comprehensive picture, we generated dose–response curves with a CSN5 inhibitor across more than 500 cancer cell lines in a previously described standardized setting[47] (Supplementary Data 1).
A standardized CellTiter-Glo Assay (Promega #G7570) based on the quantification of ATP was applied according to the manufacturer's protocol to measure the amount of viable cells in culture. In brief, cells were seeded into 384-well plates at optimal density for each cell line. After 4 h, compounds were added at different concentrations in growth medium and incubated for another 72 h in a humidifying chamber at 37 °C and 5% CO2. […] EC50 values were calculated from the plot of percentage of inhibition versus inhibitor concentration using the nonlinear regression analysis software Origin 7.5SR6 (OriginLab Corp.).

## CC(C)C[C@H](NC(=O)[C@H](Cc1ccccc1)NC(=O)c1cnccn1)B(O)O [Bortezomib]
HCC1500, HCC1500
  EC50: 5.16 nM
HCC1569, HCC1569
  EC50: 6.77 nM
HCC1806, HCC1806
  EC50: 24.8 nM
HCC1937, HCC1937
  EC50: 7.46 nM
HCC1954, HCC1954
  EC50: 3.14 nM
HCC2218, HCC2218
  EC50: 9.79 nM
HCT-15, HCT-15
  EC50: 26.6 nM
HCT-116, HCT 116
  EC50: 6.91 nM
HEC-1-A, cell line HEC-1-A
  EC50: 15.5 nM
HEC-6, HEC-6
  EC50: 21.4 nM
HEC-50B
  EC50: 25.2 nM
HEC-59
  EC50: 7.32 nM
HEC-151
  EC50: 21.6 nM
HEC-251, HEC-251
  EC50: 9.46 nM
HEC-265
  EC50: 17 nM
HEL 92.1.7, HEL 92.1.7
  EC50: 5.21 nM
HEY A8, Hey-A8
  EC50: 56.7 nM
HGC-27, HGC-27
  EC50: 16.2 nM
HLC-1
  EC50: 11.1 nM
HLF
  EC50: 13.8 nM
HMC-1-8
  EC50: 7.01 nM
HMCB
  EC50: 9.61 nM
HPBALL, HPB-ALL
  EC50: 3.18 nM
HRT-18, HRT-18
  EC50: 53.1 nM
HT
  EC50: 1.72 nM
HT55, HT55
  EC50: 31 nM
HT115, HT115
  EC50: 8.52 nM
HT-29, HT-29
  EC50: 18.4 nM
HT-144, HT-144
  EC50: 8.93 nM
HT-1080, HT-1080
  EC50: 20.1 nM
HT-1376, HT-1376
  EC50: 18.1 nM
HTK-
  EC50: 17.1 nM
Hs 294T
  EC50: 11.4 nM
Hs 571.T
  EC50: 10.2 nM
Hs 611.T
  EC50: 6.13 nM
Hs 695T
  EC50: 3.73 nM
Hs 729
  EC50: 7.87 nM
Hs766T, Hs 766T
  EC50: 19.8 nM
Hs 936.T
  EC50: 8.25 nM
Hs 939.T
  EC50: 4.42 nM
Hs 940.T
  EC50: 3.97 nM
Hs 944.T
  EC50: 12.7 nM
Hs-578T, Hs 578T
  EC50: 10.3 nM
HuH-1, cell line huH-1
  EC50: 44.7 nM
HuP-T3, HUP-T3
  EC50: 7.39 nM
IGR-1, IGR-1
  EC50: 8.66 nM
IGR-37, IGR-37
  EC50: 8.3 nM
IGR-39, IGR-39
  EC50: 7.6 nM
IGROV-1, IGROV1
  EC50: 26.8 nM
IMR-32, IMR-32
  EC50: 5.94 nM
IPC-298, cell line IPC-298
  EC50: 9.44 nM
Ishikawa, Ishikawa (Heraklio) 02 ER-
  EC50: 16.1 nM
J82, J82
  EC50: 11.9 nM
JHH7, cell line JHH-7
  EC50: 10.2 nM
JHH-2, cell line JHH-2
  EC50: 18.3 nM
JHOM-1
  EC50: 4.86 nM
JHUEM-2
  EC50: 5.6 nM
JIMT-1, JIMT-1
  EC50: 13.9 nM
JJN-3, JJN-3
  EC50: 2.61 nM
JVM-2, JVM-2
  EC50: 4.69 nM
JVM-3, JVM-3
  EC50: 8.69 nM
JeKo-1, JeKo-1
  EC50: 7.3 nM
Jurkat
  EC50: 9.14 nM
K029AX
  EC50: 4.76 nM
K562, K-562
  EC50: 16.3 nM
KARPAS-299, KARPAS-299
  EC50: 5.88 nM
KARPAS-422, KARPAS-422
  EC50: 6.19 nM
KASUMI-2
  EC50: 3.8 nM
KATO III, cell line KATO III
  EC50: 7.88 nM
KCL-22, KCL-22
  EC50: 4.19 nM
KHM-1B
  EC50: 4.04 nM
KLE
  EC50: 12.8 nM
KM12, KM12
  EC50: 23.9 nM
KMM-1, KMM-1
  EC50: 4.45 nM
KMRC-1, KMRC-1
  EC50: 6.75 nM
KMRC-20
  EC50: 10.1 nM
KMS-11, KMS-11
  EC50: 3.19 nM
KMS-12-BM
  EC50: 5.34 nM
KMS-26, KMS-26
  EC50: 11.5 nM
KMS-28BM
  EC50: 3.85 nM
KMS-34, KMS-34
  EC50: 12.2 nM
KNS-62, KNS-62
  EC50: 19.3 nM
KO52
  EC50: 2.37 nM
KP-1N
  EC50: 7.49 nM
KP-1NL
  EC50: 9.41 nM
KP-N-SI9s
  EC50: 8.48 nM
KP-N-YN
  EC50: 20.2 nM
KPL-1, KPL-1
  EC50: 20.5 nM
KU812, KU812
  EC50: 4 nM
KYM-1
  EC50: 4.88 nM
KYO1, KYO-1
  EC50: 6.59 nM
KYSE-30, KYSE-30
  EC50: 7.82 nM
KYSE-70, cell line KYSE-70
  EC50: 18 nM
KYSE-150, cell line KYSE-150
  EC50: 6.63 nM
KYSE-270, cell line KYSE-270
  EC50: 10.3 nM
KYSE-410, cell line KYSE-410
  EC50: 21.2 nM
KYSE-450, KYSE-450
  EC50: 16 nM
KYSE-510, cell line KYSE-510
  EC50: 11.9 nM
KYSE-520, cell line KYSE-520
  EC50: 13.4 nM
Karpas-620, KARPAS-620
  EC50: 6.17 nM
Kelly
  EC50: 3.53 nM
Ki-JK
  EC50: 4.34 nM
L3.3
  EC50: 29.6 nM
L-363, L-363
  EC50: 5.51 nM
LAMA-84, LAMA-84
  EC50: 5.36 nM
LCLC-97TM1, LCLC-97TM1
  EC50: 8.39 nM
LCLC-103H
  EC50: 10.1 nM
LK-2, LK-2
  EC50: 11.7 nM
LMSU
  EC50: 10.3 nM
LN-18, LN-18
  EC50: 15.3 nM
LN-229, LN-229
  EC50: 8.7 nM
LOX IMVI
  EC50: 26.4 nM
LP-1, LP-1
  EC50: 5.99 nM
LS180, LS 180
  EC50: 16.4 nM
LS-411N, LS411N
  EC50: 17.3 nM
LXF-289, LXF-289
  EC50: 14.3 nM
Li-7, Li-7
  EC50: 15.6 nM
LoVo
  EC50: 13.4 nM
Loucy
  EC50: 2.54 nM
Lu-65, LU65
  EC50: 7.61 nM
Lu-99, LU99
  EC50: 15.4 nM
MB 157
  EC50: 6.39 nM
MC116, cell line MC116
  EC50: 9.81 nM
MCAS
  EC50: 8.1 nM
MCF7, MCF7
  EC50: 38 nM
MDA-MB-175-VII
  EC50: 10.3 nM
MDA-MB-231, MDA-MB-231
  EC50: 10.9 nM
MDA-MB-415, MDA-MB-415
  EC50: 16.1 nM
MDA-MB-436, MDA-MB-436
  EC50: 12.6 nM
MDA-MB-453, MDA-MB-453
  EC50: 6.73 nM
MDA-MB-468, MDA-MB-468
  EC50: 5.97 nM
MDST8, MDST8
  EC50: 8.17 nM
MEC1, MEC-1
  EC50: 4.98 nM
MEG-01, MEG-01
  EC50: 8.7 nM
MEL-JUSO
  EC50: 10.6 nM
MFE-296, cell line MFE-296
  EC50: 19.8 nM
MG-63, MG-63
  EC50: 5.92 nM
MHH-NB-11
  EC50: 10.4 nM
MIA PaCa-2, cell line MIA PaCa-2
  EC50: 15.1 nM
MINO
  EC50: 6.8 nM
MKN-1, cell line MKN1
  EC50: 6.81 nM
MKN-7, cell line MKN7
  EC50: 7.08 nM
MKN-45, cell line MKN-45
  EC50: 8.03 nM
MKN-74, cell line MKN74
  EC50: 8.77 nM
MM1.S, cell line MM1-S
  EC50: 2 nM
MOLM16, MOLM-16
  EC50: 1.95 nM
MOLM-13, MOLM-13
  EC50: 5.21 nM
MOLP-8, MOLP-8
  EC50: 7.29 nM
MOLT-16, MOLT-16
  EC50: 1.73 nM
MONO-MAC-6, MONO-MAC-6
  EC50: 10.9 nM
MOR/CPR
  EC50: 39.6 nM
MSTO-211H, cell line MSTO-211H
  EC50: 22 nM
MV4-11, cell line MV-4-11
  EC50: 5.18 nM
Malme-3M
  EC50: 3.27 nM
Maver1, cell line MAVER-1
  EC50: 6.73 nM
MeWo, cell line MeWo
  EC50: 8.08 nM
Mel202, cell line Mel202
  EC50: 10.1 nM
Mono-Mac-1, MONO-MAC-1
  EC50: 7.98 nM
